These results are taken from PubChem BioAssay (NCI).

Test systems include HCC-2998 colon; TK-10 renal; BT-549 breast; EKVX NSCLC; MOLT-4 leukemia; OVCAR-4 ovarian; RPMI-8226 leukemia; HL-60(TB) leukemia; MCF7 breast; A498 renal; 786-0 renal; HCT-15 colon; OVCAR-3 ovarian; CCRF-CEM leukemia; ACHN renal; MDA-MB-468 breast; DU-145 prostate; SNB-19 CNS; RXF 393 renal; SK-MEL-2 melanoma; NCI-H23 lung.
Common to all, as to assay: NCI tumour cell line growth inhibition, 48 h

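Protocol summary: plate cells (96-well), add compound at 5 concentrations, incubate 48 h, interpolate endpoints linearly. GI50 is the concentration that inhibits growth by half. TGI: total growth inhibition.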

As to `COc1ccc2nc(Nc3cccc(NC(=O)c4ccc(CN5CCCN(C)CC5)c(C(F)(F)F)c4)c3)ccc2c1`, the GI50 is 175 nM in the assay on HCC-2998 colon; 179 nM in the assay on TK-10 renal; 160 nM with BT-549 breast; 167 nM with EKVX NSCLC; 102 nM in the assay with MOLT-4 leukemia; 171 nM with OVCAR-4 ovarian. The GI50 in the assay with RPMI-8226 leukemia is 176 nM; with HL-60(TB) leukemia it was 189 nM; in the assay on MCF7 breast, 121 nM; in the assay on A498 renal, 177 nM; in the assay on 786-0 renal, 169 nM; in the assay on HCT-15 colon, 51.1 nM. Moreover, the GI50 is 177 nM in the assay with OVCAR-3 ovarian; 173 nM in the assay on CCRF-CEM leukemia; 171 nM with ACHN renal; 0.125 µM with MDA-MB-468 breast; 171 nM in the assay on DU-145 prostate; 173 nM in the assay with SNB-19 CNS. The figures for the GI50 in the assay on RXF 393 renal, with SK-MEL-2 melanoma and in the assay on NCI-H23 lung were 134 nM, 175 nM and 148 nM, respectively. Besides, the TGI worked out at 313 nM in the assay on HCC-2998 colon; 318 nM in the assay with TK-10 renal; 297 nM in the assay on BT-549 breast; 307 nM with EKVX NSCLC; 352 nM in the assay on MOLT-4 leukemia; 340 nM in the assay on OVCAR-4 ovarian. The TGI with RPMI-8226 leukemia was found to be 456 nM; in the assay with HL-60(TB) leukemia, 438 nM; with MCF7 breast it was 261 nM; in the assay on A498 renal it was 325 nM; in the assay on 786-0 renal it was 309 nM; in the assay on HCT-15 colon, 170 nM. Also, the TGI in the assay on OVCAR-3 ovarian came to 334 nM; with CCRF-CEM leukemia it was 531 nM; with ACHN renal it was 308 nM; in the assay with MDA-MB-468 breast, 0.256 µM; with DU-145 prostate it was 316 nM; with SNB-19 CNS, 313 nM. The TGI was 267 nM in the assay on RXF 393 renal, 315 nM in the assay with SK-MEL-2 melanoma and 282 nM with NCI-H23 lung.

In the case of `CCOc1ccc2cc(-c3nn(CC4CCN(C)CC4)c4ncnc(N)c34)ccc2c1`, in the assay with MDA-MB-468 breast, the GI50 was 14.5 µM and the TGI was determined as 32.2 µM.

On to `COc1ccc(CN2c3ccccc3Sc3ccccc32)cc1O`, for which, in the assay on MDA-MB-468 breast, the GI50 was 0.531 µM and the TGI amounted to 12.3 µM.

As for `COc1ccc(C(=O)c2ccccc2)c(O)c1`, in the assay with MDA-MB-468 breast, the GI50 was 40 µM and the TGI was over 100 µM.

As for `CCCCC[C@H]1C/C=C2/C(=O)C=C[C@@H]2C/C=C\CCCC(=O)O1`, in the assay on MDA-MB-468 breast, the GI50 is 0.134 µM and the TGI is 0.577 µM.

As to `COC(=O)N[C@@H](C)CNc1nccc(-c2cn(C(C)C)nc2-c2cc(Cl)cc(NS(C)(=O)=O)c2F)n1`, in the assay with MDA-MB-468 breast, the GI50 was 24.8 µM and the TGI was over 100 µM.

Take `COc1cc(N)c(Cl)cc1C(=O)N[C@@H]1CCN(CCCOc2ccc(F)cc2)C[C@@H]1OC`: in the assay with MDA-MB-468 breast, the GI50 is 89.4 µM and the TGI was over 100 µM.

`CSCc1ncc(-c2ccc(C(F)(F)F)cc2)c(NC2CCCCCC2)n1`: in the assay with MDA-MB-468 breast, the GI50 is over 10 µM and the TGI was over 10 µM.

As to `CCOC(=O)/C=C/c1ccc([N+](=O)[O-])o1`, in the assay with MDA-MB-468 breast, the GI50 was 3.76 µM and the TGI came to 17.5 µM.
